# Data taken from US20230165831A1, “METHOD AND COMPOSITION FOR RENDERING CANCER CELLS SUSCEPTIBLE TO TREATMENT BY TARGETED ONCOGENETIC DRIVERS” (IMPACT BIOLIFE SCIENCE, INC., priority 2021, published 2023).
# Like-named read-outs stand apart in the source and are kept apart here.
# Legend:
# [1] = tested on: pancreatic cancer line Capan-1 cells; assay: CTG (CellTiter-Glo) cell viability assay, 6×6 combo matrix, 72 h, Capan-1; type: cell-based; details: for Relatively Cell inhibition of vehicle control(%): Capan-1
# Description: To measure the cell inhibition effect of compounds and synergy effect of test articles on ten (10) cell lines using standard CTG assay.
# b. A549, T47D, SK-OV-3, MKN45, SK-Hep-1, HT-29, Capan-1, 786-O and LNCaP cell line, for compounds and vehicle groups, the seeding density of cell lines is 3000 cells/80 µL per well. For blank groups, add 100 µL medium. For PBS groups, add 100 µL PBS.
# 8) Incubate the U87MG, A549, T47D, SK-OV-3, MKN45, SK-Hep-1, HT-29, Capan-1, 786-O and LNCaP cells overnight at 37° C./5% CO2.
# 5) Incubate the plates at 37° C./5% CO2 for 72 hours.
# 6) Read plates in Envision.
# [2] = tested on: breast cancer line T47D cells; assay: CTG (CellTiter-Glo) cell viability assay, 6×6 combo matrix, 72 h, T47D; details: Homo sapiens;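 also: luminescence read-out after 72 h at 37 °C under 5% CO2, with medium-only wells as blanks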
# [3] = tested on: colorectal cancer line HT29 cells; assay: CTG (CellTiter-Glo) cell viability assay, 6×6 combo matrix, 72 h, HT29; details: HT29;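 also: cells exposed to compounds for 72 hours at 37 °C under 5% CO2, then viability read as luminescence after adding CellTiter-Glo Reagent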
# Description: (§1) 7) Using complete cell medium, adjust the volume of the suspension to achieve a cell concentration.
# (§2) Solid compound of cis-platinum was solubilized in PBS to a stock solution of 3.333 mM.
# (§3) Final volume is 100 µL per well at this point.
# (§4) 1) Incubate the plates at room temperature and away from light for 30 minutes.
# (§5) 3) Add 100 µL /well of CellTiter-Glo® Reagent in each well. Avoid light.
# (§6) 4) Mix contents for 2 minutes on an orbital shaker.
# (§7) 5) Incubate plate at room temperature for 10 minutes to stabilize the luminescent signal.
# [4] = tested on: lung adenocarcinoma line A549 cells; assay: CTG (CellTiter-Glo) cell viability assay, 6×6 combo matrix, 72 h, A549; details: for Relatively Cell inhibition of vehicle control(%): A549;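 as to all read-outs here: luminescent ATP readout with CellTiter-Glo after compound exposure, used to assess growth inhibition and combination synergy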
# Description: as §1, §2, §3, §4, §5, §6, §7
# [5] = tested on: glioblastoma line U87MG cells; assay: CTG (CellTiter-Glo) cell viability assay, 6×6 combo matrix, 72 h, U87MG; details: Homo sapiens, U-87 MG;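 also: U87MG cells seeded at 2000 per well, exposed 72 h, viability read by CellTiter-Glo luminescence, inhibition expressed relative to vehicle-treated wells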
# Description: as §1
# U87MG cell lines, for compounds and vehicle groups, the seeding density of cell lines is 2000 cells/80 µL per well. For blank groups, add 100 µL medium. For PBS groups, add 100 µL PBS.
# as §2, §3, §4, §5, §6, §7
# [6] = Homo sapiens, CAPAN-1, read-out: inhibition rate
# [7] = Homo sapiens, A549, read-out: Relatively Cell inhibition of vehicle control(%)
compound,measurement,setting,value
O=c1c(O)c(-c2cc(O)c(O)c(O)c2)oc2cc(O)cc(O)c12 [myricetin],inhibition at 4 µM,[1]; [6],6.24%
same,inhibition at 100 µM,[1]; [6],23.3%
same,Relatively Cell inhibition of vehicle control(%),[1]; Myr 4 pM only (topotecan matrix),0.67%
same,Relatively Cell inhibition of vehicle control(%),[1]; Myr 20 pM only (doxorubicin matrix),11.98%
same,Relatively Cell inhibition of vehicle control(%),[1]; Myr 20 pM only (topotecan matrix),5.10%
same,Relatively Cell inhibition of vehicle control(%),[1]; Myr 100 pM only (doxorubicin matrix),30.94%
same,Relatively Cell inhibition of vehicle control(%),[1]; Myr 0.8 µM only (cisplatin matrix),1.28%
same,Relatively Cell inhibition of vehicle control(%),[1]; Myr 0.8 µM only (doxorubicin matrix),7.91%
same,Relatively Cell inhibition of vehicle control(%),[1]; Myr 0.8 µM only (taxol matrix),3.71%
same,Relatively Cell inhibition of vehicle control(%),[1]; Myr 0.8 µM only (topotecan matrix),-6.16%
same,Relatively Cell inhibition of vehicle control(%),[1]; Myr 4 µM only (cisplatin matrix),6.73%
same,Relatively Cell inhibition of vehicle control(%),[1]; Myr 4 µM only (taxol matrix),7.41%
same,Relatively Cell inhibition of vehicle control(%),[1]; Myr 20 µM only (cisplatin matrix),10.48%
same,Relatively Cell inhibition of vehicle control(%),[1]; Myr 20 µM only (taxol matrix),9.11%
same,Relatively Cell inhibition of vehicle control(%),[1]; Myr 100 µM only (cisplatin matrix),31.40%
same,Relatively Cell inhibition of vehicle control(%),[1]; Myr 100 µM only (taxol matrix),30.66%
same,inhibition at 0.8 µM,"[2]; read-out: Relatively Cell inhibition of vehicle control(%), T47D, 0.8 µM myricetin only (cisplatin 0)",-1.72%
same,inhibition at 0.8 µM,"[2]; read-out: Relatively Cell inhibition of vehicle control(%), T47D, 0.8 µM myricetin only (doxorubicin 0)",8.68%
same,inhibition at 0.8 µM,"[2]; read-out: Relatively Cell inhibition of vehicle control(%), T47D, 0.8 µM myricetin only (taxol 0)",6.31%
same,inhibition at 0.8 µM,"[2]; read-out: Relatively Cell inhibition of vehicle control(%), T47D, 0.8 µM myricetin only (topotecan 0)",1.93%
same,inhibition at 4 µM,"[2]; read-out: Relatively Cell inhibition of vehicle control(%), T47D, 4 µM myricetin only (cisplatin 0)",-0.88%
same,inhibition at 4 µM,"[2]; read-out: Relatively Cell inhibition of vehicle control(%), T47D, 4 µM myricetin only (doxorubicin 0)",1.01%
same,inhibition at 4 µM,"[2]; read-out: Relatively Cell inhibition of vehicle control(%), T47D, 4 µM myricetin only (taxol 0)",0.2%
same,inhibition at 4 µM,"[2]; read-out: Relatively Cell inhibition of vehicle control(%), T47D, 4 µM myricetin only (topotecan 0)",-2.25%
same,inhibition at 20 µM,"[2]; read-out: Relatively Cell inhibition of vehicle control(%), T47D, 20 µM myricetin only (cisplatin 0)",2.08%
same,inhibition at 20 µM,"[2]; read-out: Relatively Cell inhibition of vehicle control(%), T47D, 20 µM myricetin only (doxorubicin 0)",8.28%
same,inhibition at 20 µM,"[2]; read-out: Relatively Cell inhibition of vehicle control(%), T47D, 20 µM myricetin only (taxol 0)",5.67%
same,inhibition at 20 µM,"[2]; read-out: Relatively Cell inhibition of vehicle control(%), T47D, 20 µM myricetin only (topotecan 0)",3.54%
same,inhibition at 100 µM,"[2]; read-out: Relatively Cell inhibition of vehicle control(%), T47D, 100 µM myricetin only (cisplatin 0)",25.4%
same,inhibition at 100 µM,"[2]; read-out: Relatively Cell inhibition of vehicle control(%), T47D, 100 µM myricetin only (doxorubicin 0)",24.5%
same,inhibition at 100 µM,"[2]; read-out: Relatively Cell inhibition of vehicle control(%), T47D, 100 µM myricetin only (taxol 0)",30%
same,inhibition at 100 µM,"[2]; read-out: Relatively Cell inhibition of vehicle control(%), T47D, 100 µM myricetin only (topotecan 0)",22.2%
same,Relatively Cell inhibition of vehicle control(%),[3]; Myr 0.8 µM only (Cis 0),3.87%
same,Relatively Cell inhibition of vehicle control(%),[3]; Myr 0.8 µM only (Dox 0),-1.09%
same,Relatively Cell inhibition of vehicle control(%),[3]; Myr 0.8 µM only (Tax 0),-1.36%
same,Relatively Cell inhibition of vehicle control(%),[3]; Myr 0.8 µM only (Top 0),-0.48%
same,Relatively Cell inhibition of vehicle control(%),[3]; Myr 4 µM only (Cis 0),6.56%
same,Relatively Cell inhibition of vehicle control(%),[3]; Myr 4 µM only (Dox 0),-0.67%
same,Relatively Cell inhibition of vehicle control(%),[3]; Myr 4 µM only (Tax 0),0.80%
same,Relatively Cell inhibition of vehicle control(%),[3]; Myr 4 µM only (Top 0),3.33%
same,Relatively Cell inhibition of vehicle control(%),[3]; Myr 20 µM only (Cis 0),24.55%
same,Relatively Cell inhibition of vehicle control(%),[3]; Myr 20 µM only (Dox 0),23.37%
same,Relatively Cell inhibition of vehicle control(%),[3]; Myr 20 µM only (Tax 0),32.84%
same,Relatively Cell inhibition of vehicle control(%),[3]; Myr 20 µM only (Top 0),24.77%
same,Relatively Cell inhibition of vehicle control(%),[3]; Myr 100 µM only (Cis 0),90.42%
same,Relatively Cell inhibition of vehicle control(%),[3]; Myr 100 µM only (Dox 0),74.39%
same,Relatively Cell inhibition of vehicle control(%),[3]; Myr 100 µM only (Tax 0),88.39%
same,Relatively Cell inhibition of vehicle control(%),[3]; Myr 100 µM only (Top 0),87.04%
same,inhibition at 0.8 µM,[4]; [7],-3.15%
same,inhibition at 4 µM,[4]; [7],0.85%
same,inhibition at 20 µM,[4]; [7],7.42%
same,inhibition at 100 µM,[4]; [7],40.3%
same,Relatively Cell inhibition of vehicle control(%),[4]; Myr 0.8 µM only (taxol matrix),-0.98%
same,Relatively Cell inhibition of vehicle control(%),[4]; Myr 4 µM only (taxol matrix),3.22%
same,Relatively Cell inhibition of vehicle control(%),[4]; Myr 20 µM only (taxol matrix),9.01%
same,Relatively Cell inhibition of vehicle control(%),[4]; Myr 100 µM only (taxol matrix),41.11%
same,inhibition at 0.8 µM,"[5]; read-out: Relatively Cell inhibition of vehicle control(%), myricetin 0.8 µM only (cisplatin plate)",1.25%
same,inhibition at 0.8 µM,"[5]; read-out: Relatively Cell inhibition of vehicle control(%), myricetin 0.8 µM only (doxorubicin plate)",-1.19%
same,inhibition at 0.8 µM,"[5]; read-out: Relatively Cell inhibition of vehicle control(%), myricetin 0.8 µM only (taxol plate)",2.29%
same,inhibition at 0.8 µM,"[5]; read-out: Relatively Cell inhibition of vehicle control(%), myricetin 0.8 µM only (topotecan plate)",3.94%
same,inhibition at 4 µM,"[5]; read-out: Relatively Cell inhibition of vehicle control(%), myricetin 4 µM only (cisplatin plate)",-0.71%
same,inhibition at 4 µM,"[5]; read-out: Relatively Cell inhibition of vehicle control(%), myricetin 4 µM only (doxorubicin plate)",1.02%
same,inhibition at 4 µM,"[5]; read-out: Relatively Cell inhibition of vehicle control(%), myricetin 4 µM only (taxol plate)",0.66%
same,inhibition at 4 µM,"[5]; read-out: Relatively Cell inhibition of vehicle control(%), myricetin 4 µM only (topotecan plate)",3.52%
same,inhibition at 20 µM,"[5]; read-out: Relatively Cell inhibition of vehicle control(%), myricetin 20 µM only (cisplatin plate)",9.21%
same,inhibition at 20 µM,"[5]; read-out: Relatively Cell inhibition of vehicle control(%), myricetin 20 µM only (doxorubicin plate)",7.98%
same,inhibition at 20 µM,"[5]; read-out: Relatively Cell inhibition of vehicle control(%), myricetin 20 µM only (taxol plate)",11.1%
same,inhibition at 20 µM,"[5]; read-out: Relatively Cell inhibition of vehicle control(%), myricetin 20 µM only (topotecan plate)",8.45%
